# Source: patent US20030199671A1, “Binding molecules for Fc-region polypeptides” (priority 2001, published 2003)
# Positions of bridges follow the written chain, without caps; N, C: chain ends. Residues, ends and D or L forms follow the SMILES beside them.
# How the values were obtained:
# [1] = test system: bovine IgG; assay type: binding
# How it was run: (§1)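 Read-out is A280 of unbound IgG (1.4 mg/ml extinction coefficient), with percent bound derived against non-filtered or negative controls. Targets were incubated with immobilized peptides in PBST or TBST for 1-1.5 h at room temperature. Hydrolyzed Sepharose and immobilized Protein A serve as negative and positive controls.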
# [2] = test system: goat IgG; assay type: binding
# How it was run: as §1
# [3] = target: T1, human IgG1 (Homo sapiens, UniProt P01857); assay type: binding
# T1 construct: all human subtypes derived from myeloma patients; purchased Calbiochem 400120; host or cells: myeloma patients
# T1 sequence (P01857 1-330 isoform P01857-1): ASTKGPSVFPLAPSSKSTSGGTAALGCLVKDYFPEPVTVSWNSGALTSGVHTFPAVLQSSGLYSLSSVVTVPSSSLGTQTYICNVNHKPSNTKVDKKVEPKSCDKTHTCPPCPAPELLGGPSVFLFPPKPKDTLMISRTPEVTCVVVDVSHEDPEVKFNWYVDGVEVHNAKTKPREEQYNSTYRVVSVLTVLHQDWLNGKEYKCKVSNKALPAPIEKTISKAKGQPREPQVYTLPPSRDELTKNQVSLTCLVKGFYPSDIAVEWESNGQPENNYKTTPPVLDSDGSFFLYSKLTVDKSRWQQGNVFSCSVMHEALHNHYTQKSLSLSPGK
# How it was run: (§2)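 Static binding, peptide resin + IgG, 1-1.5 h RT with shaking, PBST pH 7.2 or TBST pH 7.5. Flow-through read at A280 vs buffer blank; % bound = control minus unbound. Elution at pH 8.5 bicarbonate and/or pH 4.0 citrate, 30-60 min.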
# [4] = target: T2, human IgG2 (Homo sapiens, UniProt P01859); assay type: binding
# T2 construct: all human subtypes derived from myeloma patients; purchased Calbiochem 400122; host or cells: myeloma patients
# T2 sequence (P01859 1-326 isoform P01859-1): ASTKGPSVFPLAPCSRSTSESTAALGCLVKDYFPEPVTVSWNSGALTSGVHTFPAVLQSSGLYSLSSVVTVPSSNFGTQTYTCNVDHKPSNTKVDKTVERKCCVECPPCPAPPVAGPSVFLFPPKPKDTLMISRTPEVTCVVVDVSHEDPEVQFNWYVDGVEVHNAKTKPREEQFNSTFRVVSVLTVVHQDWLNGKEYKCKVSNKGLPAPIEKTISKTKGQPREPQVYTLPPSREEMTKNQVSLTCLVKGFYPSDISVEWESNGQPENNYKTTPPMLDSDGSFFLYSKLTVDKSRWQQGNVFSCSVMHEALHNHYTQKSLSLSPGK
# How it was run: as §1
# [5] = test system: human IgG; assay type: binding
# How it was run: as §1
# [6] = test system: mouse IgG; assay type: binding
# How it was run: as §1
# [7] = test system: human IgG; experiment: Dynamic (mini-column) binding capacity
# Description: These media were used to determine the effect of ligand density on human IgG binding capacity in both static (filterplate) and dynamic (mini-column) modes with commercial immobilized recombinant Protein A (Repligen, IPA400) at a single density as control.
# The IgG solution was loaded onto the column at a flow rate of 0.2 ml/minute (170 cm/hr). […] At the end of the loading period, the column was washed with PBS until the absorbance at 280 nm of the column eluant returned to baseline. […] Neutralizing the pH of the eluted fractions was unnecessary since the total IgG eluted was determined by total protein absorbance at 280 nm.
# To establish total media capacities, IgG was loaded onto the columns until the absorbances of the column load and flow through streams were identical (loading to full capacity). After washing the column to baseline, bound IgG was eluted and the total amount captured from this elution fraction determined. The total capacity of the media (mg IgG/ml media) as total IgG captured divided by the column bed volume was calculated.
# Additionally, column capacities at 10% breakthrough were calculated from the online A280 measurements of column flowthrough streams. The A280 curves obtained for the column of interest and for an equivalent “blank” column containing hydrolyzed Sepharose FF 4 media were aligned. The difference in areas between these curves (for a retained and non-retained target) from the time of injection to the time at which the A280 value for the column of interest had risen to 10% of the maximum A280 absorbance (100%) obtained for the load solution at 100% IgG capture saturation (10% breakthrough) was graphically integrated. A standard curve was used to relate the integrated area to mg IgG bound and capacity calculated as total IgG bound divided by column bed volume.
# [8] = target: IgG3 (Homo sapiens, UniProt P01860); assay type: binding; design: all human subtypes derived from myeloma patients; purchased Calbiochem 400124; host or cells: myeloma patients
# Chain of IgG3 (P01860 1-377 isoform P01860-1): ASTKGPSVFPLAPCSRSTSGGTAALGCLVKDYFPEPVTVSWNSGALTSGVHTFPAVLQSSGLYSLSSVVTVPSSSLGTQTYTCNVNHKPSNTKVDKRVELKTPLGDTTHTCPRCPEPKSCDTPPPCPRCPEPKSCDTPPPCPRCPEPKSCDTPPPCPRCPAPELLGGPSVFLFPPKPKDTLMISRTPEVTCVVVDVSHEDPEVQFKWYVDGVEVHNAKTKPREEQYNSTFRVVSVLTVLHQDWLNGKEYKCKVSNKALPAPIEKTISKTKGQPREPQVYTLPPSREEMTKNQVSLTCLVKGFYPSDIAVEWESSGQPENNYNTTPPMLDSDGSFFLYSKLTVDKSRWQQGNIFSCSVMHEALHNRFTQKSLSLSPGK
# How it was run: as §2
# [9] = target: IgG4 (Homo sapiens, UniProt P01861); assay type: binding; design: all human subtypes derived from myeloma patients; purchased Calbiochem 400126; host or cells: myeloma patients
# Chain of IgG4 (P01861 1-327 isoform P01861-1): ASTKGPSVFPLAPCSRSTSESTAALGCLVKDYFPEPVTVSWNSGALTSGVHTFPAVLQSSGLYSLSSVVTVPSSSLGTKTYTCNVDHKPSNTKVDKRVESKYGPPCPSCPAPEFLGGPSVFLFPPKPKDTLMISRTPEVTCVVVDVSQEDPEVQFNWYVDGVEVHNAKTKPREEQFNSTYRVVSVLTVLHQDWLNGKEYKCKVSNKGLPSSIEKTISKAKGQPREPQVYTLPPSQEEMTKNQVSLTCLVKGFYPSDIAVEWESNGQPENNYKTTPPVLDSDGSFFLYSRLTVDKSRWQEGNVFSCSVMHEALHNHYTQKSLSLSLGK
# How it was run: as §1
# [10] = Table 9, immobilized peptide, 5.0 mg/ml resin load
# [11] = Table 10, elution 0.1 M sodium bicarbonate buffer, pH 8.5
# [12] = Table 10, elution 0.1 M sodium citrate buffer, pH 4.0
compound,measurement,setting,value
CC[C@H](C)[C@@H]1NC(=O)[C@H](CC(C)C)NC(=O)[C@H](CCC(=O)O)NC(=O)CNC(=O)[C@H](Cc2c[nH]c3ccccc23)NC(=O)[C@H]([C@@H](C)O)NC(=O)[C@H]([C@@H](C)O)NC(=O)[C@H](Cc2ccc(O)cc2)NC(=O)[C@H](C(C)C)NC(=O)[C@@H](NC(=O)[C@H](CCSC)NC(=O)[C@H](Cc2c[nH]cn2)NC(=O)[C@H](CC(=O)O)NC(=O)[C@H](CC(=O)O)NC(=O)CNC(C)=O)CSSC[C@@H](C(=O)N[C@@H](CC(=O)O)C(=O)N[C@@H](CC(N)=O)C(=O)N[C@@H](Cc2c[nH]cn2)C(=O)N[C@@H](CCC(=O)O)C(=O)N2CCC[C@H]2C(=O)NCC(=O)N2CCC[C@H]2C(=O)N[C@@H](CCC(=O)O)C(=O)NCC(=O)NCC(=O)NCC(=O)N[C@@H](CCCCN)C(N)=O)NC(=O)[C@H](Cc2c[nH]c3ccccc23)NC1=O [DX249] (Ac-GDDHMCVYTTWGELIWCDNHEPGPEGGGK-NH2; disulfide 6-17),"% IgG Capture - Batch Binding, Bovine IgG",[1],0%
same,"% IgG Capture - Batch Binding, Goat IgG",[2],0%
same,"% IgG Capture - Batch Binding, Human IgG1",[3]; [10],91%
same,Human IgG1 bdg % (% of Total Load),"[3]; Table 10, batch binding",91%
same,Human IgG1 elu pH 8.5 (% of Total Load),[3]; [11],63%
same,Human IgG1 elu pH 4.0 (% of Total Load),[3]; [12],51%
same,hIgG1 elution pH 2.5 (% of Total Load),[3]; Table 13,65%
same,hIgG1 elution pH 3.0 (% of Total Load),[3]; Table 13,69%
same,hIgG1 elution pH 3.5 (% of Total Load),[3]; Table 13,69%
same,hIgG1 elution pH 4.5 (% of Total Load),[3]; Table 13,37%
same,hIgG1 elution pH 5.5 (% of Total Load),[3]; Table 13,1%
same,hIgG1 elution pH 9.0 (% of Total Load),[3]; Table 13,65%
same,hIgG1 elution pH 9.5 (% of Total Load),[3]; Table 13,68%
same,"% IgG Capture - Batch Binding, Human IgG2",[4]; [10],92%
same,Human IgG2 bdg % (% of Total Load),"[4]; Table 10, batch binding",92%
same,Human IgG2 elu pH 8.5 (% of Total Load),[4]; [11],54%
same,Human IgG2 elu pH 4.0 (% of Total Load),[4]; [12],63%
same,hIgG2 elution pH 2.5 (% of Total Load),[4]; Table 13,71%
same,hIgG2 elution pH 3.0 (% of Total Load),[4]; Table 13,73%
same,hIgG2 elution pH 3.5 (% of Total Load),[4]; Table 13,63%
same,hIgG2 elution pH 4.5 (% of Total Load),[4]; Table 13,39%
same,hIgG2 elution pH 5.5 (% of Total Load),[4]; Table 13,1%
same,hIgG2 elution pH 9.0 (% of Total Load),[4]; Table 13,60%
same,hIgG2 elution pH 9.5 (% of Total Load),[4]; Table 13,67%
same,"% IgG Capture - Batch Binding, Human IgG",[5],84%
same,"% IgG Capture - Batch Binding, Mouse IgG",[6],0%
same,Capacity (mg IgG/mL resin) 10% Breakthrough,[7]; Ligand Density 0.19 μM/mL,1.1 mg IgG/mL resin
same,Capacity (mg IgG/mL resin) Total Dynamic,[7]; Ligand Density 0.19 μM/mL,1.2 mg IgG/mL resin
same,Capacity (mg IgG/mL resin) 10% Breakthrough,[7]; Ligand Density 0.86 μM/mL,4.4 mg IgG/mL resin
same,Capacity (mg IgG/mL resin) Total Dynamic,[7]; Ligand Density 0.86 μM/mL,8.4 mg IgG/mL resin
same,Capacity (mg IgG/mL resin) 10% Breakthrough,[7]; Ligand Density 1.63 μM/mL,5.9 mg IgG/mL resin
same,Capacity (mg IgG/mL resin) Total Dynamic,[7]; Ligand Density 1.63 μM/mL,10.3 mg IgG/mL resin
same,Capacity (mg IgG/mL resin) 10% Breakthrough,[7]; Ligand Density 3.20 μM/mL,5.5 mg IgG/mL resin
same,Capacity (mg IgG/mL resin) Total Dynamic,[7]; Ligand Density 3.20 μM/mL,16.4 mg IgG/mL resin
same,Dynamic Cap.,"[7]; Table 18, total dynamic capacity, average ligand density 1.9 μmole/ml",13 mg/mL
same,"% IgG Capture - Batch Binding, Human IgG3",[8]; [10],0%
same,Human IgG3 bdg % (% of Total Load),"[8]; Table 10, batch binding",3%
same,Human IgG3 elu pH 8.5 (% of Total Load),[8]; [11],0%
same,Human IgG3 elu pH 4.0 (% of Total Load),[8]; [12],0%
same,hIgG3 elution pH 2.5 (% of Total Load),[8]; Table 13,0%
same,hIgG3 elution pH 3.0 (% of Total Load),[8]; Table 13,0%
same,hIgG3 elution pH 3.5 (% of Total Load),[8]; Table 13,0%
same,hIgG3 elution pH 4.5 (% of Total Load),[8]; Table 13,0%
same,hIgG3 elution pH 5.5 (% of Total Load),[8]; Table 13,0%
same,hIgG3 elution pH 9.0 (% of Total Load),[8]; Table 13,0%
same,hIgG3 elution pH 9.5 (% of Total Load),[8]; Table 13,0%
same,"% IgG Capture - Batch Binding, Human IgG4",[9]; [10],82%
same,Human IgG4 bdg % (% of Total Load),"[9]; Table 10, batch binding",82%
same,Human IgG4 elu pH 8.5 (% of Total Load),[9]; [11],66%
same,Human IgG4 elu pH 4.0 (% of Total Load),[9]; [12],54%
same,hIgG4 elution pH 2.5 (% of Total Load),[9]; Table 13,42%
same,hIgG4 elution pH 3.0 (% of Total Load),[9]; Table 13,43%
same,hIgG4 elution pH 3.5 (% of Total Load),[9]; Table 13,30%
same,hIgG4 elution pH 4.5 (% of Total Load),[9]; Table 13,10%
same,hIgG4 elution pH 5.5 (% of Total Load),[9]; Table 13,4%
same,hIgG4 elution pH 9.0 (% of Total Load),[9]; Table 13,53%
same,hIgG4 elution pH 9.5 (% of Total Load),[9]; Table 13,59%
